Series [1] can be described thus: Incorporation of different substances into the systems. In kind it is physicochemical. The method, then:
The incorporation was made in the step of formation of the bicelles. Depending on the hydrophilic or lypophilic character of the substance, this was added together with the lipids forming the bicelle in the chloroform step or together with the hydration water. For these preparations, the following blends: DPPC/DHPC, DMPC/DHPC and DOPC/DHPC were selected. The DOPC is dioleoylphosphatidylcholine. The work was carried out with molar rates of the concentrations of both lipids between 2 and 3.5.
The samples were submitted between 10 and 50 sonication cycles in an ultrasound bath for a period of 5 minutes and 5 minutes of freezing until they became clear.
These bicelles, together with the substances internally contained were encapsulated in liposomes in the form described in example 1 and were characterized according to the methods described in example 2.
The nistatine molecule was incorporated to the systems of the invention as described in example 3.

A further series relates to Candida albicans fungus. The series can be described thus: Microbiologic activity of nistatine (MIC). The format is cell-based. The conditions noted are these: nistatine incorporated to the liposomes of the invention.

Structures can show the parent of a compound that is named as a salt.

As for ceramides, the “encapsulation within the bicelles contained within the liposomes of the invention” value in series [1] is “efficiently encapsulated”. For the compound `Cn1c(=O)c2c(ncn2C)n(C)c1=O` [caffeine], the “encapsulation within the bicelles contained within the liposomes of the invention” value in series [1] is “efficiently encapsulated”. For `O=C(O)c1ccccc1Nc1cccc(C(F)(F)F)c1` [flufenamic acid], in series [1], the “encapsulation within the bicelles contained within the liposomes of the invention” value is “efficiently encapsulated”. As for nistatine, the “minimum inhibitory concentration (MIC)” value with Candida albicans fungus worked out at 16 µg/mL. For the same compound, the “quantity of nistatine incorporated into the system of the invention” value in series [1] (high water content system) is recorded as “about 15.75 mg/ml”. Consider `CNC(=O)CN(CCN(CCN(CC(=O)[O-])CC(=O)NC)CC(=O)[O-])CC(=O)[O-].[Gd+3]` [gadodiamide], for which the “encapsulation within the bicelles contained within the liposomes of the invention” value in series [1] is listed as “efficiently encapsulated”. For `[Fe]` [iron], the “encapsulation within the bicelles contained within the liposomes of the invention” value in series [1] is listed as “efficiently encapsulated”.

As for `CC(C)CCC[C@@H](C)[C@H]1CC[C@H]2[C@@H]3CC=C4C[C@@H](OS(=O)(=O)O)CC[C@]4(C)[C@H]3CC[C@]12C` [cholesterol sulfate], the “encapsulation within the bicelles contained within the liposomes of the invention” value in series [1] is recorded as “efficiently encapsulated”. On the same count and under the same terms, in the case of `O=C(O)Cc1ccccc1Nc1c(Cl)cccc1Cl` [dichlophenac] it was “efficiently encapsulated”.

For the origin of these results see patent US9675555B2, “Liposome-encapsulated bicelles and use thereof in diluted systems” (priority 2010, dated 2017).
